Experimental data: patent US4425356A, “Lankacidin derivatives used in swine husbandry” (Takeda Chemical Industries, Ltd., priority 1980, dated 1984)
Converted amounts (≈) assume the structure as drawn. “And” between values parts separate entries of the source, which are not always exact repeats. Equal values may be shown once. “Also recorded” adds a separate entry of the source. Read-outs that look alike come from different tables or passages of the source.

Assays:
Treponema hyodysenteriae [1] = assay: in vitro antibacterial activity (MIC, agar dilution method), Test Examples 1-3; type: cell-based
Summary of the method: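 MICs were found by agar dilution against field isolates from bloody mucous faeces of dysenteric pigs in Japan. The inoculum was a loopful of 10^6 CFU/ml suspension. Plates were incubated anaerobically (GasPak) at 37 °C.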

[2] = acute toxicity tests with mice; conditions: mouse, in vivo
Text: The toxicity of compound (I) in animals is very low.

Treponema hyodysenteriae [3] = assay: efficacy in experimental infection in mice with swine dysentery, Test Example 4; type: in vivo; conditions: 5 mg/kg/day oral, day 1 to day 4; seven days after infection
Experimental: Lankacidin A, lankacidin C, lankacidin C 8-acetate, lankacidin C 14-propionate, lankacidinol A and lankacidinol were tested for efficacy against swine dysentery in experimental infection in mice with swine dysentery.
The similar experimental infection model of swine dysentery in mice as that described, for example, by Joens et al. in Infection and Immunity, 25, 757-760 (1979), American Journal of Veterinary Research, 41, 1225-1226 (1980) and Veterinary Record, 107, 527-529 (1980) was used. Thus, a field isolate of Treponema hyodysenteriae anaerobically cultivated on the 5% defibrinated horse blood added Trypticase soy agar (BBL) plate was mashed together with the culture medium and diluted two-fold with Trypticase soy broth (BBL). Mice were inoculated intragastrically with this infecting dilution. Each test agent was suspended in 5% gum arabic solution and forcibly administered orally from day 1 to day 4 following infection. Seven days after infection, the cecum was examined for lesions, and the cecum was mashed together with the contents and subjected to Treponema hyodysenteriae counting. Excellent efficacy was produced in each of the drug-administered groups.

[4] = system: Treponema hyodysenteriae 78/A strain; assay: efficacy against swine dysentery under experimental infection conditions in pigs (drug in feed), Test Examples 5-7; type: in vivo, Landrace pigs; conditions: for Number of days on which diarrhea was observed / Number of days on which mucous bloody stool was observed / Number of pigs showing signs of infection/number of pigs used: 21-day test period; for Body weight gain / Feed conversion / Feed intake: 21 day period; for Body weight gain / Feed conversion / Feed intake / Body weight at the time of completion of test: mean per head
Summary of the method: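 Landrace pigs, 4 per group, fed starter feed with drug admixed (100 ppm or lower; 10 ppm for lankacidin A and C 14-propionate) ad libitum; infected at 7 weeks after 24 h fast by 100 ml intragastric inoculum of two-fold diluted colonic contents/mucosa from 78/A-infected pigs. Fed 21 days post-infection; per-head means to autopsy.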

[5] = system: Treponema hyodysenteriae 78/A strain; assay: therapeutic administration in pigs showing clinical signs of swine dysentery, Test Examples 8-9; type: in vivo; conditions: for No. of pathogen (in feces) / Condition of feces: individual pig
Experimental: This test was conducted under the conditions of so-called therapeutic administration. […] The method of infection was the same as in Test Example 5. […] Simultaneously with showing of the signs, the pigs were provided with a feed containing 50 ppm of lankacidin C. […] After 2 days, the viable count for the pathogen in feces was below the detection limit (10^2 CFU/g).
The condition of feces was rated at one of the following four classes:
.circle. normal; loose; diarrheal; .circleincircle. mucous and bloody
count is below the detection limit (10^2 CFU/g).
The symbol * indicates those days on which the feed containing 50 ppm of
lankacidin C was given.
Lankacidins were tested for therapeutic effects in swine dysentery under therapeutic conditions in the same manner as in Test Example 8. The effects were judged based on the condition of feces.
The condition of feces was rated at one of the following four classes;
The symbol * indicates the days on which the feed containing 50 ppm of th

[6] = 50 ppm in feed, autopsy 15 days after manifestation of signs

Compound: CC(=O)C(=O)NC1C=C(C)C=CC(O)CC=C(C)C=CC(O)CC2OC(=O)C1(C)C(=O)C2C (stereo not shown) [Lankacidin C, lankacidin C]
- MIC (Treponema hyodysenteriae [1]; Brachyspira hyodysenteriae, 48 h, read-out: Minimum Inhibitory Concentration, strain DJ70P1, 37° C., 2 days, anaerobic): 3.13 µg/mL (≈ 6.81 µM)
- in vitro antibacterial activity (in words) (Treponema hyodysenteriae [1]; against Treponema hyodysenteriae): strong antibacterial activity
- LD50 ([2]; ip, intraperitoneal, read-out: intraperitoneal LD50): 4500 mg/kg
- LD50 ([2]; oral, read-out: oral LD50): > 10000 mg/kg
- Number of mice from which the pathogen was detected/number of mice tested (Treponema hyodysenteriae [3]): 1/5
- Number of mice with cecal lesions/number of mice tested (Treponema hyodysenteriae [3]): 0/5
- Number of pigs from which the pathogen was detected, in colonic mucosa ([4]; 10 ppm in feed): 0
- Number of pigs from which the pathogen was detected, in feces ([4]; 10 ppm in feed): 0
- Number of pigs showing colonic lesions ([4]; 10 ppm in feed): 0
- Number of days on which diarrhea was observed ([4]; 10 ppm in feed): 0 days
- Number of days on which mucous bloody stool was observed ([4]; 10 ppm in feed): 0 days
- Number of pigs showing signs of infection/number of pigs used ([4]; 10 ppm in feed): 0/4
- Body weight gain ([4]; 10 ppm in feed): 484 grams/day
- Feed conversion ([4]; 10 ppm in feed): 1.81
- Feed intake ([4]; 10 ppm in feed): 18.4 kg
- Body weight at the time of completion of test ([4]; 10 ppm in feed): 20.7 kg
- Number of pigs from which the pathogen was detected, in colonic mucosa ([4]; 50 ppm in feed): 0
- Number of pigs from which the pathogen was detected, in feces ([4]; 50 ppm in feed): 0
- Number of pigs showing colonic lesions ([4]; 50 ppm in feed): 0
- Number of days on which diarrhea was observed ([4]; 50 ppm in feed): 0 days
- Number of days on which mucous bloody stool was observed ([4]; 50 ppm in feed): 0 days
- Number of pigs showing signs of infection/number of pigs used ([4]; 50 ppm in feed): 0/4
- Body weight gain ([4]; 50 ppm in feed): 673 grams/day
- Feed conversion ([4]; 50 ppm in feed): 1.79
- Feed intake ([4]; 50 ppm in feed): 25.3 kg
- Body weight at the time of completion of test ([4]; 50 ppm in feed): 25.3 kg
- Number of pigs from which the pathogen was detected, in colonic mucosa ([4]; 100 ppm in feed): 0
- Number of pigs from which the pathogen was detected, in feces ([4]; 100 ppm in feed): 0
- Number of pigs showing colonic lesions ([4]; 100 ppm in feed): 0
- Number of days on which diarrhea was observed ([4]; 100 ppm in feed): 0 days
- Number of days on which mucous bloody stool was observed ([4]; 100 ppm in feed): 0 days
- Number of pigs showing signs of infection/number of pigs used ([4]; 100 ppm in feed): 0/4
- Body weight gain ([4]; 100 ppm in feed): 708 grams/day and 689 grams/day
- Feed conversion ([4]; 100 ppm in feed): 1.85 and 1.77
- Feed intake ([4]; 100 ppm in feed): 27.5 kg and 25.6 kg
- Body weight at the time of completion of test ([4]; 100 ppm in feed): 28.5 kg and 25.5 kg
- effect against swine dysentery (in words) ([4]; pig, in vivo): excellent effect against swine dysentery; also recorded: more excellent anti-swine-dysentery agent than carbadox
- therapeutic effect in swine dysentery (in words) ([5]; 50 ppm in feed): therapeutically effective
- viable count for the pathogen in feces ([5]; 50 ppm in feed, after 2 days): < 10^2 CFU/g
- colonic lesions (autopsy) [5, 6]: negative
- pathogen at autopsy (in words) [5, 6]: without the pathogen being detected
- colonic lesions (autopsy) ([5]; 50 ppm in feed, autopsy 15 days after manifestation of signs, listed as lankacidin C): no colonic lesions
- No. of pathogen (in feces) ([5]; 50 ppm in feed, day 0): 8.0 log/g and 6.0 log/g and 7.1 log/g and 6.8 log/g
- No. of pathogen (in feces) ([5]; 50 ppm in feed, day 1): 4.3 log/g and 2.3 log/g and 4.4 log/g and 2.0 log/g
- mucous bloody diarrhea / passage (in words) ([5]; 50 ppm in feed, day following the administration): mucous bloody diarrhea was no more observed on the day following the administration but the passage was loose or normal
- Condition of feces ([5]; Table 8, 50 ppm in feed days 0-6, day 7): .circle.
- Condition of feces ([5]; Table 8, 50 ppm in feed days 0-6, day 8): .circle.
- Condition of feces ([5]; Table 8, 50 ppm in feed days 0-6, day 9): .circle.
- Condition of feces ([5]; Table 8, 50 ppm in feed days 0-6, day 10): .circle.
- Condition of feces ([5]; Table 8, 50 ppm in feed days 0-6, day 11): .circle.
- Condition of feces ([5]; Table 8, 50 ppm in feed days 0-6, day 12): .circle.
- Condition of feces ([5]; Table 8, 50 ppm in feed days 0-6, day 13): .circle.
- Condition of feces ([5]; Table 8, 50 ppm in feed days 0-6, day 14): .circle.
- Condition of feces ([5]; Table 8, 50 ppm in feed days 0-6, day 15): .circle.
- Condition of feces ([5]; Table 8, 50 ppm in feed, day 0 after manifestation of signs): .circleincircle.
- Condition of feces ([5]; Table 8, 50 ppm in feed, day 1): .circle.
- Condition of feces ([5]; Table 8, 50 ppm in feed, day 2): .circle.
- Condition of feces ([5]; Table 8, 50 ppm in feed, day 3): .circle.
- Condition of feces ([5]; Table 8, 50 ppm in feed, day 4): .circle.
- Condition of feces ([5]; Table 8, 50 ppm in feed, day 5): .circle.
- Condition of feces ([5]; Table 8, 50 ppm in feed, day 6): .circle.
- Condition of feces ([5]; Table 9, 50 ppm in feed, day 0 after manifestation of signs): .circleincircle.
- Condition of feces ([5]; Table 9, 50 ppm in feed, day 1): .circle.
- Condition of feces ([5]; Table 9, 50 ppm in feed, day 2): .circle.
- Condition of feces ([5]; Table 9, 50 ppm in feed, day 3): .circle.
- Condition of feces ([5]; Table 9, 50 ppm in feed, day 4): .circle.
- Condition of feces ([5]; Table 9, 50 ppm in feed, day 5): .circle.
